Experimental data from ChEMBL document CHEMBL1131556, “The discovery of orally available thrombin inhibitors: studies towards the optimisation of CGH1668” (Bioorg Med Chem Lett, 1998).

Experiments:
Prothrombin = Prothrombin (Homo sapiens, UniProt P00734); assay: In vitro binding affinity for human thrombin.
[1] = Activated partial thromboplastin time (APTT) was determined by the influence on doubling of a human clotting time assay; assay type: functional

Structure (SMILES)	Ki (Prothrombin)	Activity [1]
Nc1ccc(C[C@H](NS(=O)(=O)c2cnccc2N[C@H](CO)CC2CCCCC2)C(=O)N2CCC(CCF)CC2)cc1	18 nM	2.6 µM
CNC[C@H](CC1CCCCC1)Nc1ccncc1S(=O)(=O)N[C@@H](Cc1ccc(N)cc1)C(=O)N1CCC(CCF)CC1	33 nM	2.8 µM
COCCN(CCOC)C[C@H](Cc1ccccc1)Nc1ccncc1S(=O)(=O)N[C@@H](Cc1ccc(N)cc1)C(=O)N1CCC(CCF)CC1	19 nM	3.7 µM
Nc1ccc(C[C@H](NS(=O)(=O)c2cnccc2N[C@@H](Cc2ccccc2)CN2CCNC(=O)C2)C(=O)N2CCC(CCF)CC2)cc1	90 nM	2.43 µM
COc1ccc(C[C@H](NS(=O)(=O)c2cnccc2N[C@H](CO)Cc2ccccc2)C(=O)N2CCC(CCF)CC2)cc1	36 nM	8.1 µM
COc1ccc(C[C@@H](CO)Nc2ccncc2S(=O)(=O)N[C@@H](Cc2ccc(N)cc2)C(=O)N2CCC(CCF)CC2)cc1OC	49 nM	2.5 µM
Nc1ccc(C[C@H](NS(=O)(=O)c2cnccc2N[C@@H](Cc2ccccc2)CN2CCCC2)C(=O)N2CCC(CCF)CC2)cc1	48 nM	3.4 µM
O=C([C@H](Cc1ccc(O)cc1)NS(=O)(=O)c1cnccc1N[C@H](CO)Cc1ccccc1)N1CCC(CCF)CC1	41 nM	1.91 µM
Nc1ccc(C[C@H](NS(=O)(=O)c2cnccc2N[C@@H](Cc2ccccc2)CN2CCOCC2)C(=O)N2CCC(CCF)CC2)cc1	22 nM	2.9 µM
Nc1ccc(C[C@H](NS(=O)(=O)c2cnccc2N[C@@H](Cc2ccccc2)CN2CCCCC2)C(=O)N2CCC(CCF)CC2)cc1	25 nM	6.1 µM
CC(=O)N1CCN(C[C@H](Cc2ccccc2)Nc2ccncc2S(=O)(=O)N[C@@H](Cc2ccc(N)cc2)C(=O)N2CCC(CCF)CC2)CC1	24 nM	2.4 µM
CCC1CCN(C(=O)[C@H](Cc2ccc(N)cc2)NS(=O)(=O)c2cnccc2N[C@H](CO)Cc2ccccc2)CC1	110 nM	5.5 µM
Nc1ccc(C[C@H](NS(=O)(=O)c2cnccc2N[C@H](CO)Cc2ccccc2)C(=O)N2CCC(CCCl)CC2)cc1	27 nM	4.4 µM
COc1ccc(C[C@@H](CO)Nc2ccncc2S(=O)(=O)N[C@@H](Cc2ccc(N)cc2)C(=O)N2CCC(CCF)CC2)cc1	19 nM	2.9 µM
O=C([C@H](Cc1ccccc1)NS(=O)(=O)c1cnccc1N[C@H](CO)Cc1ccccc1)N1CCC(CCF)CC1	100 nM	11.5 µM
CNc1ccc(C[C@H](NS(=O)(=O)c2cnccc2N[C@H](CO)Cc2ccccc2)C(=O)N2CCC(CCF)CC2)cc1	12 nM	4.1 µM
Nc1ccc(C[C@H](NS(=O)(=O)c2cnccc2N[C@H](COCCO)Cc2ccccc2)C(=O)N2CCC(CCF)CC2)cc1	49 nM	2.5 µM
Nc1ccc(C[C@H](NS(=O)(=O)c2cnccc2N[C@@H](Cc2ccccc2)CN2CCC(O)CC2)C(=O)N2CCC(CCF)CC2)cc1	19 nM	1.73 µM
Nc1ccc(C[C@H](NS(=O)(=O)c2cnccc2N[C@H](CO)Cc2ccccc2)C(=O)N2CCC(CCO)CC2)cc1	634 nM	7.4 µM
O=C([C@H](Cc1ccc(F)cc1)NS(=O)(=O)c1cnccc1N[C@H](CO)Cc1ccccc1)N1CCC(CCF)CC1	65 nM	11.7 µM
COc1ccc(C[C@@H](C)Nc2ccncc2S(=O)(=O)N[C@@H](Cc2ccc(N)cc2)C(=O)N2CCC(CCF)CC2)cc1	15 nM	9 µM

Further lines, with some results ahead:

Ki (Prothrombin)	Structure (SMILES)	Activity [1]
45 nM	CCN(CC)C[C@H](Cc1ccccc1)Nc1ccncc1S(=O)(=O)N[C@@H](Cc1ccc(N)cc1)C(=O)N1CCC(CCF)CC1	3.56 µM
18 nM	C[C@H](Cc1ccccc1)Nc1ccncc1S(=O)(=O)N[C@@H](Cc1ccc(N)cc1)C(=O)N1CCC(CCF)CC1	7.1 µM
43 nM	CCCCNC[C@H](Cc1ccccc1)Nc1ccncc1S(=O)(=O)N[C@@H](Cc1ccc(N)cc1)C(=O)N1CCC(CCF)CC1	5.1 µM
47 nM	CCCNC[C@H](Cc1ccccc1)Nc1ccncc1S(=O)(=O)N[C@@H](Cc1ccc(N)cc1)C(=O)N1CCC(CCF)CC1	3.3 µM
72 nM	Nc1ccc(C[C@H](NS(=O)(=O)c2cnccc2N[C@H](CNCCO)Cc2ccccc2)C(=O)N2CCC(CCF)CC2)cc1	2 µM
24 nM	CN(C)C[C@H](Cc1ccccc1)Nc1ccncc1S(=O)(=O)N[C@@H](Cc1ccc(N)cc1)C(=O)N1CCC(CCF)CC1	3.4 µM
35 nM	CNC[C@H](Cc1ccccc1)Nc1ccncc1S(=O)(=O)N[C@@H](Cc1ccc(N)cc1)C(=O)N1CCC(CCF)CC1	2.4 µM
39 nM	Nc1ccc(C[C@H](NS(=O)(=O)c2cnccc2N[C@H](CO)Cc2ccccc2)C(=O)N2CCC(CCF)CC2)cc1	2.5 µM
99 nM	CCNC[C@H](Cc1ccccc1)Nc1ccncc1S(=O)(=O)N[C@@H](Cc1ccc(N)cc1)C(=O)N1CCC(CCF)CC1	3.2 µM
